Experimental data published in EPA's ToxValDB 9.5.
“And” between values parts separate entries of the source, which are not always exact repeats. Equal values may be shown once.

Test system: Mus musculus
Details: short-term, oral
[1] = duration: 14 days, gavage, M, BALB/c, spleen: lymphocyte proliferation (ConA)
[2] = duration: 14 days, gavage, M, BALB/c, spleen: spleen CD3+ cells + spleen: spleen CD3+CD4+ cells + spleen: spleen CD3+CD8+ cells
[3] = duration: 14 days, gavage, M, BALB/c, spleen: spleen: relative weight
[4] = duration: 21 days, gavage, F, B6C3F1, Survival rate (influenza A infection)
[5] = duration: 21 days, gavage, M, BALB/c, spleen: lymphocyte proliferation (ConA)
[6] = duration: 21 days, gavage, M, BALB/c, spleen: spleen CD3+ cells + spleen: spleen CD3+CD4+ cells + spleen: spleen CD3+CD8+ cells + spleen: spleen: relative weight
[7] = duration: 28 days, gavage, F, B6C3F1, IgM antibody-producing cells (SRBC)
[8] = duration: 28 days, gavage, F, B6C3F1, peritoneal cavity: IL-6 levels (+LPS in vivo) + peritoneal cavity: TNF-alpha levels (+LPS in vitro) + spleen: spleen: relative weight
[9] = duration: 28 days, gavage, F, B6C3F1, serum lysozyme activity + spleen: splenic CD4-/CD8+ + spleen: splenic CD4+/CD8-
[10] = duration: 28 days, gavage, F, B6C3F1, spleen (B cells): IL-6 levels (+LPS)
[11] = duration: 28 days, gavage, F, B6C3F1, thymus: thymic CD4+/CD8+

Question: With O=S(=O)(O)C(F)(F)C(F)(F)C(F)(F)C(F)(F)C(F)(F)C(F)(F)C(F)(F)C(F)(F)F [Perfluorooctanesulfonic acid] as the compound, how does the NOEL (duration: 14 days, gavage, F, BALB/c, spleen: spleen: relative weight + thymus: percentage of apoptotic cells in thymus + thymus: thymus: relative weight) read?
Answer: 5 mg/kg-day

Question: What about the NOEL (duration: 14 days, gavage, M, BALB/c, spleen mRNA expression of IL-1Beta + thymus mRNA expression of IL-1Beta + thymus: percentage of apoptotic cells in thymus + thymus: thymus: …) of the same compound?
Answer: 20 mg/kg-day

Question: What about the LOEL [1] of the same compound?
Answer: 10 mg/kg-day

Question: What about the NOEL [1] of the same compound?
Answer: 5 mg/kg-day

Question: And the LOEL (duration: 14 days, gavage, M, BALB/c, spleen: spleen CD3+ cells (cells normalized to control) + spleen: spleen CD3+CD4+ cells (cells normalized to control) + spleen: spleen CD3+…)?
Answer: 2.5 mg/kg-day

Question: What about the LOEL [2] of the same compound?
Answer: 5 mg/kg-day

Question: And the NOEL [2]?
Answer: 2.5 mg/kg-day

Question: What about the LOEL [3] of the same compound?
Answer: 20 mg/kg-day

Question: What about the NOEL [3] of the same compound?
Answer: 5 mg/kg-day and 10 mg/kg-day

Question: And the LOEL (duration: 14 days, gavage, M, BALB/c, thymus: percentage of apoptotic cells in thymus + thymus: thymus: relative weight)?
Answer: 5 mg/kg-day

Question: What about the “LOEL (TAD)” value (duration: 21 days, gavage, F, B6C3F1, IgM antibody titer (TNP)) of the same compound?
Answer: 7 mg/kg-day

Question: What about the LOEL [4] of the same compound?
Answer: 0.025 mg/kg-day

Question: And the NOEL [4]?
Answer: 0.005 mg/kg-day

Question: What about the NOEL (duration: 21 days, gavage, F, B6C3F1, body weight + body weight during influenza A infection (day 41, 20 days after infection) + spleen: spleen: relative weight + Survival time (…) of the same compound?
Answer: 0.025 mg/kg-day

Question: And the LOEL (duration: 21 days, gavage, F, B6C3F1, body weight during influenza A infection (day 30, 9 days after infection))?
Answer: 0.005 mg/kg-day

Question: What about the LOEL [5] of the same compound?
Answer: 5 mg/kg-day

Question: And the NOEL [5]?
Answer: 2.5 mg/kg-day

Question: And the LOEL (duration: 21 days, gavage, M, BALB/c, spleen: spleen CD3+ cells (cells normalized to control) + spleen: spleen CD3+CD4+ cells (cells normalized to control) + spleen: spleen CD3+…)?
Answer: 2.5 mg/kg-day

Question: What about the NOEL (duration: 21 days, gavage, M, BALB/c, spleen: spleen CD3+ cells + spleen: spleen CD3+CD4+ cells (cells normalized to control) + spleen: spleen CD3+CD8+ cells (cells normalized to…) of the same compound?
Answer: 10 mg/kg-day

Question: And the LOEL [6]?
Answer: 10 mg/kg-day

Question: And the NOEL [6]?
Answer: 5 mg/kg-day

Question: And the LOEL (duration: 28 days, diet, M, B6C3F1, corticosterone)?
Answer: 0.000156%

Question: And the NOEL (duration: 28 days, diet, M, B6C3F1, haemagglutination + IgG antibody level (SRBC 1:200) + IgM antibody-secreting cells (SRBC) + IgM antibody level (SRBC 1:200) + IgM antibody …)?
Answer: 0.000156%

Question: And the NOEL (duration: 28 days, diet, M, C57BL/6, liver: IFN-gamma levels + liver: IFN-gamma levels (+Con A in vivo) + liver: IL-4 levels (+Con A in vivo) + liver: TNF-alpha levels + liver: …)?
Answer: 0.0001%

Question: What about the NOEL (duration: 28 days, gavage, F, B6C3F1, IL-4 levels (+PMA) + spleen (CD4+ T cells): IL-5 levels (+PMA) + spleen (CD4+ T cells): IL-6 levels (+anti-CD3) + spleen (CD4+ T cells): IL-…) of the same compound?
Answer: 0.0331 mg/kg-day

Question: And the “LOEL (TAD)” value [7]?
Answer: 0.5 mg/kg-day

Question: What about the “NOEL (TAD)” value [7] of the same compound?
Answer: 0.1 mg/kg-day

Question: And the LOEL (duration: 28 days, gavage, F, B6C3F1, blood serum: IL-6 levels (+LPS in vivo) + blood serum: TNF-alpha levels (+LPS in vivo))?
Answer: 0.0331 mg/kg-day

Question: And the NOEL (duration: 28 days, gavage, F, B6C3F1, eosinophils + lymphocytes + monocytes + neutrophils + platelet count + RBC + spleen: cells expressing CD19-/CD21+ + spleen: cells expressing…)?
Answer: 0.166 mg/kg-day

Question: What about the NOEL (duration: 28 days, gavage, F, B6C3F1, peritoneal cavity: IL-6 levels (+LPS in vitro) + peritoneal cavity: IL-6 levels (+LPS in vivo) + peritoneal cavity: TNF-alpha levels (+LPS …) of the same compound?
Answer: 9.93 mg/kg-day

Question: And the LOEL [8]?
Answer: 9.93 mg/kg-day

Question: And the NOEL [8]?
Answer: 0.0993 mg/kg-day

Question: What about the “LOEL (TAD)” value [9] of the same compound?
Answer: 0.1 mg/kg-day

Question: What about the “NOEL (TAD)” value [9] of the same compound?
Answer: 0.05 mg/kg-day

Question: And the LOEL [10]?
Answer: 0.0331 mg/kg-day

Question: What about the NOEL [10] of the same compound?
Answer: 0.00331 mg/kg-day

Question: What about the LOEL (duration: 28 days, gavage, F, B6C3F1, spleen (B cells): IL-6 levels (+anti-CD40)) of the same compound?
Answer: 0.00331 mg/kg-day

Question: And the NOEL (duration: 28 days, gavage, F, B6C3F1, spleen: IL-6 secreting cells (# splenocytes))?
Answer: 0.0331 mg/kg-day

Question: And the LOEL (duration: 28 days, gavage, F, B6C3F1, spleen: IL-6 secreting cells (# splenocytes) + spleen: IL-6 secreting cells (% splenocytes))?
Answer: 0.0993 mg/kg-day

Question: And the “NOEL (TAD)” value (duration: 28 days, gavage, F, B6C3F1, spleen: lymphocyte proliferation (ConA) + spleen: lymphocyte proliferation (LPS) + spleen: spleen cellularity + spleen: spleen: relative …)?
Answer: 5 mg/kg-day

Question: What about the “LOEL (TAD)” value [11] of the same compound?
Answer: 1 mg/kg-day

Question: And the “NOEL (TAD)” value [11]?
Answer: 0.5 mg/kg-day
